Values joined by “and” are separate entries in the source; they are usually repeats but may differ in a detail not shown here. Equal values may be shown once.
Assays:
[1] = molecular target: T1, recombinant full-length AR (Homo sapiens, UniProt P10275); test: Cell-free binding to recombinant full-length AR; details: 16 hours at room temperature
T1 sequence (P10275 1-920): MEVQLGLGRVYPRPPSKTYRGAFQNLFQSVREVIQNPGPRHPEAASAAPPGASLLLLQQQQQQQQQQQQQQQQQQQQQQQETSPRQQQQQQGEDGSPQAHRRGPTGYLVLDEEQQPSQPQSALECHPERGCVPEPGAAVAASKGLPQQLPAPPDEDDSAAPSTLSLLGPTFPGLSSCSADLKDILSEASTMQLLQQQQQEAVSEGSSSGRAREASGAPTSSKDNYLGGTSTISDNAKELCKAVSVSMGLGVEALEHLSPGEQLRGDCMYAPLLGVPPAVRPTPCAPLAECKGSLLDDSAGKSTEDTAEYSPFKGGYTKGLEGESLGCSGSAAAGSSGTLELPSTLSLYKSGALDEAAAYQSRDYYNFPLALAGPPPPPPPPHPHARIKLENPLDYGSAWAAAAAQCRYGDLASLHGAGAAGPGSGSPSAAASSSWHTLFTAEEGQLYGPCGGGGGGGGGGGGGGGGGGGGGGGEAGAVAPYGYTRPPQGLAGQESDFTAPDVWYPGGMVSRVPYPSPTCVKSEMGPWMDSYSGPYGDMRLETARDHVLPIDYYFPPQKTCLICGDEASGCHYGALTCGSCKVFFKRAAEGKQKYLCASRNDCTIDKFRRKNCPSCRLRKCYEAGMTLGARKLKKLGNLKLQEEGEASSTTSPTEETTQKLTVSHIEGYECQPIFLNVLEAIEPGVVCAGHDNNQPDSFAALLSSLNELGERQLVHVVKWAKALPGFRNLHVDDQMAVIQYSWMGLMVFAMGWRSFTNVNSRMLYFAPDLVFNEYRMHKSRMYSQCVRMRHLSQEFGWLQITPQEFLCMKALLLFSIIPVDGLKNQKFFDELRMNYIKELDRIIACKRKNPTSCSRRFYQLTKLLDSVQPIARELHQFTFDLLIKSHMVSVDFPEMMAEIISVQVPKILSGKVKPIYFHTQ

[2] = Micro-SPECT/CT imaging of mice bearing LNCaP95 and PC3 xenografts; format: in vivo, male castrated NOD/SCID mice
[3] = Biodistribution with blocking by excess cold EPI-002; format: in vivo, male castrated NOD/SCID mice; details: excess cold EPI-002 50 mg/kg body weight; 1 hour
endogenous AR = test: Binding to endogenous AR in LNCaP95 cells; format: cell-based, human; details: 16 hours
[4] = In vivo biodistribution in mice bearing LNCaP95 and PC3 xenografts; design: species or system male castrated NOD/SCID mice

[^123I]15-iodoEPI002 [^123I-EPI-002]
binding to recombinant full-length AR [1]: binds to recombinant full-length AR | LNCaP95 tumor uptake (SPECT) ([2]; 2 hours after injection): 1.09% ± 0.41% | thyroid uptake ([2]; blocking with EPI-002): 2.32% ± 0.33% | thyroid uptake ([2]; unblocked): approximately 2.31% ± 0.59% | decrease in ^123I-EPI-002 accumulation in the LNCaP95 xenograft by blocking [3]: 74% | binding to endogenous AR in LNCaP95 cells (endogenous AR): binds covalently and specifically to AR | Bladder uptake ([4]; 0 h after injection): 0.79 ± 0.49 %ID/g | Blood uptake ([4]; 0 h after injection): 12.57 ± 2.03 %ID/g | Bone uptake ([4]; 0 h after injection): 1.09 ± 0.75 %ID/g | Brain uptake ([4]; 0 h after injection): 1.29 ± 0.55 %ID/g | Heart uptake ([4]; 0 h after injection): 7.62 ± 1.86 %ID/g | Kidney uptake ([4]; 0 h after injection): 5.57 ± 2.37 %ID/g | Large intestine uptake ([4]; 0 h after injection): 0.70 ± 0.42 %ID/g | Liver uptake ([4]; 0 h after injection): 5.03 ± 3.29 %ID/g | Lung uptake ([4]; 0 h after injection): 5.19 ± 1.59 %ID/g | Muscle uptake ([4]; 0 h after injection): 1.60 ± 1.89 %ID/g | Negative tumor (PC3) uptake ([4]; 0 h after injection): 0.19 ± 0.06 %ID/g | Positive tumor (LNCaP95) uptake ([4]; 0 h after injection): 0.17 ± 0.06 %ID/g | Ratio LNCaP95/PC3 ([4]; 0 h after injection): 0.9 | Ratio LNCaP95/blood ([4]; 0 h after injection): 0.01 | Ratio LNCaP95/kidney ([4]; 0 h after injection): 0.03 | Ratio LNCaP95/liver ([4]; 0 h after injection): 0.04 | Ratio LNCaP95/muscle ([4]; 0 h after injection): 0.22 | Small intestine uptake ([4]; 0 h after injection): 2.44 ± 1.05 %ID/g | Spleen uptake ([4]; 0 h after injection): 1.15 ± 1.04 %ID/g | Stomach uptake ([4]; 0 h after injection): 1.80 ± 1.60 %ID/g | Bladder uptake ([4]; 1 h after injection): 1.47 ± 0.65 %ID/g | Blood uptake ([4]; 1 h after injection): 0.74 ± 0.30 %ID/g | Bone uptake ([4]; 1 h after injection): 1.03 ± 0.31 %ID/g | Brain uptake ([4]; 1 h after injection): 1.68 ± 0.67 %ID/g | Gallbladder uptake ([4]; 1 h after injection): 10.09 ± 6.60 %ID/g | Heart uptake ([4]; 1 h after injection): 2.25 ± 0.50 %ID/g | Kidney uptake ([4]; 1 h after injection): 3.07 ± 0.90 %ID/g | Large intestine uptake ([4]; 1 h after injection): 1.22 ± 0.34 %ID/g | Liver uptake ([4]; 1 h after injection): 7.76 ± 0.95 %ID/g | Lung uptake ([4]; 1 h after injection): 2.40 ± 1.01 %ID/g | Muscle uptake ([4]; 1 h after injection): 1.34 ± 0.40 %ID/g | Ratio LNCaP95/PC3 ([4]; 1 h after injection): 3.2 | Ratio LNCaP95/blood ([4]; 1 h after injection): 3.58 ± 0.66 and 3.58 | Ratio LNCaP95/kidney ([4]; 1 h after injection): 0.71 | Ratio LNCaP95/liver ([4]; 1 h after injection): 0.29 | Ratio LNCaP95/muscle ([4]; 1 h after injection): 1.72 | Small intestine uptake ([4]; 1 h after injection): 7.43 ± 5.25 %ID/g | Spleen uptake ([4]; 1 h after injection): 0.96 ± 0.23 %ID/g | Stomach uptake ([4]; 1 h after injection): 1.73 ± 0.69 %ID/g | Bladder uptake ([4]; 2 h after injection): 1.13 ± 0.55 %ID/g | Blood uptake ([4]; 2 h after injection): 0.31 ± 0.08 %ID/g | Bone uptake ([4]; 2 h after injection): 0.51 ± 0.11 %ID/g | Brain uptake ([4]; 2 h after injection): 0.83 ± 0.21 %ID/g | Gallbladder uptake ([4]; 2 h after injection): 2.12 ± 3.60 %ID/g | Heart uptake ([4]; 2 h after injection): 1.04 ± 0.22 %ID/g | Kidney uptake ([4]; 2 h after injection): 1.43 ± 0.58 %ID/g | Large intestine uptake ([4]; 2 h after injection): 1.90 ± 2.02 %ID/g | Liver uptake ([4]; 2 h after injection): 4.81 ± 1.13 %ID/g | Lung uptake ([4]; 2 h after injection): 0.78 ± 0.19 %ID/g | Muscle uptake ([4]; 2 h after injection): 0.49 ± 0.18 %ID/g | Negative tumor (PC3) uptake ([4]; 2 h after injection): 0.35 ± 0.14 %ID/g | Positive tumor (LNCaP95) uptake ([4]; 2 h after injection): 1.13 ± 0.16 %ID/g | Ratio LNCaP95/PC3 ([4]; 2 h after injection): 3.3 | Ratio LNCaP95/blood ([4]; 2 h after injection): 3.74 | Ratio LNCaP95/kidney ([4]; 2 h after injection): 0.96 | Ratio LNCaP95/liver ([4]; 2 h after injection): 0.24 | Ratio LNCaP95/muscle ([4]; 2 h after injection): 2.51 | Small intestine uptake ([4]; 2 h after injection): 6.29 ± 3.72 %ID/g | Spleen uptake ([4]; 2 h after injection): 0.71 ± 0.34 %ID/g | Stomach uptake ([4]; 2 h after injection): 0.68 ± 0.31 %ID/g | Bladder uptake ([4]; 4 h after injection): 0.52 ± 0.17 %ID/g | Blood uptake ([4]; 4 h after injection): 0.25 ± 0.07 %ID/g | Bone uptake ([4]; 4 h after injection): 0.39 ± 0.13 %ID/g | Brain uptake ([4]; 4 h after injection): 0.55 ± 0.18 %ID/g | Gallbladder uptake ([4]; 4 h after injection): 0.35 ± 0.03 %ID/g | Heart uptake ([4]; 4 h after injection): 0.88 ± 0.18 %ID/g | Kidney uptake ([4]; 4 h after injection): 1.05 ± 0.11 %ID/g | Large intestine uptake ([4]; 4 h after injection): 66 %ID/g and 66.53 ± 34.05 %ID/g | Liver uptake ([4]; 4 h after injection): 4.30 ± 0.68 %ID/g | Lung uptake ([4]; 4 h after injection): 0.75 ± 0.24 %ID/g | Muscle uptake ([4]; 4 h after injection): 0.45 ± 0.13 %ID/g | Negative tumor (PC3) uptake ([4]; 4 h after injection): 0.50 ± 0.17 %ID/g | Positive tumor (LNCaP95) uptake ([4]; 4 h after injection): 1.04 ± 0.14 %ID/g | Ratio LNCaP95/PC3 ([4]; 4 h after injection): 2.1 | Ratio LNCaP95/blood ([4]; 4 h after injection): 4.38 | Ratio LNCaP95/kidney ([4]; 4 h after injection): 1.00 | Ratio LNCaP95/liver ([4]; 4 h after injection): 0.25 | Ratio LNCaP95/muscle ([4]; 4 h after injection): 2.57 | Small intestine uptake ([4]; 4 h after injection): 6.25 ± 2.18 %ID/g | Spleen uptake ([4]; 4 h after injection): 0.55 ± 0.24 %ID/g | Stomach uptake ([4]; 4 h after injection): 0.29 ± 0.19 %ID/g | Bladder uptake ([4]; 6 h after injection): 0.39 ± 0.21 %ID/g | Blood uptake ([4]; 6 h after injection): 0.17 ± 0.03 %ID/g | Bone uptake ([4]; 6 h after injection): 0.21 ± 0.08 %ID/g | Brain uptake ([4]; 6 h after injection): 0.39 ± 0.12 %ID/g | Gallbladder uptake ([4]; 6 h after injection): 9.64 ± 16.02 %ID/g | Heart uptake ([4]; 6 h after injection): 0.51 ± 0.13 %ID/g | Kidney uptake ([4]; 6 h after injection): 0.65 ± 0.24 %ID/g | Large intestine uptake ([4]; 6 h after injection): 47.42 ± 7.58 %ID/g | Liver uptake ([4]; 6 h after injection): 2.92 ± 0.94 %ID/g | Lung uptake ([4]; 6 h after injection): 0.50 ± 0.25 %ID/g | Muscle uptake ([4]; 6 h after injection): 0.24 ±0.09 %ID/g | Negative tumor (PC3) uptake ([4]; 6 h after injection): 0.49 ± 0.01 %ID/g | Positive tumor (LNCaP95) uptake ([4]; 6 h after injection): 0.52 ± 0.10 %ID/g | Ratio LNCaP95/PC3 ([4]; 6 h after injection): 1.1 | Ratio LNCaP95/blood ([4]; 6 h after injection): 3.12 | Ratio LNCaP95/kidney ([4]; 6 h after injection): 0.85 | Ratio LNCaP95/liver ([4]; 6 h after injection): 0.21 | Ratio LNCaP95/muscle ([4]; 6 h after injection): 2.56 | Small intestine uptake ([4]; 6 h after injection): 2.37 ± 1.43 %ID/g | Spleen uptake ([4]; 6 h after injection): 0.30 ± 0.18 %ID/g | Stomach uptake ([4]; 6 h after injection): 0.19 ± 0.08 %ID/g | Bladder uptake ([4]; 12 h after injection): 0.09 ± 0.04 %ID/g | Blood uptake ([4]; 12 h after injection): 0.07 ± 0.04 %ID/g | Bone uptake ([4]; 12 h after injection): 0.07 ± 0.05 %ID/g | Brain uptake ([4]; 12 h after injection): 0.10 ± 0.05 %ID/g | Gallbladder uptake ([4]; 12 h after injection): 3.12 ± 0.81 %ID/g | Heart uptake ([4]; 12 h after injection): 0.17 ± 0.10 %ID/g | Kidney uptake ([4]; 12 h after injection): 0.16 ± 0.08 %ID/g | Large intestine uptake ([4]; 12 h after injection): 27.02 ± 14.89 %ID/g | Liver uptake ([4]; 12 h after injection): 1.06 ± 0.48 %ID/g | Lung uptake ([4]; 12 h after injection): 0.16 ± 0.08 %ID/g | Muscle uptake ([4]; 12 h after injection): 0.06 ± 0.03 %ID/g | Negative tumor (PC3) uptake ([4]; 12 h after injection): 0.13 ± 0.13 %ID/g | Positive tumor (LNCaP95) uptake ([4]; 12 h after injection): 0.15 ± 0.08 %ID/g | Ratio LNCaP95/PC3 ([4]; 12 h after injection): 1.2 | Ratio LNCaP95/blood ([4]; 12 h after injection): 2.22 | Ratio LNCaP95/kidney ([4]; 12 h after injection): 0.92 | Ratio LNCaP95/liver ([4]; 12 h after injection): 0.14 | Ratio LNCaP95/muscle ([4]; 12 h after injection): 2.98 | Small intestine uptake ([4]; 12 h after injection): 2.14 ± 1.49 %ID/g | Spleen uptake ([4]; 12 h after injection): 0.07 ± 0.03 %ID/g | Stomach uptake ([4]; 12 h after injection): 1.78 ± 1.27 %ID/g

From publication PMC4980083 (JCI insight, 2016)
